Reference: patent US20090036530A1, “Crystalline acid of lipoxin A4 analogs and method of making” (Bayer Schering Pharma Aktiengesellschaft, priority 2006, published 2009)

Experiment: Hygroscopicity study in automated water sorption analyzer (sorption/desorption isotherm)
Format: physicochemical
Description: Polymorph I of the free acid is transformed above 60% relative humidity into the hydrate. It is hygroscopic and adsorbs at 80% relative humidity approx. 8% moisture, which corresponds to a dihydrate of the substance. The hydration is reversible. Below 40% relative humidity a transformation into polymorph I is observed.
Data collection for the hygroscopicity studies was carried out in an automated water sorption analyzer. Approximately 10 mg of the investigated solid state form of the crystalline acid was exposed to a continuous flow of nitrogen with predetermined and constant relative humidity. The rate of sweep gas was set at 200 cm^3/min. For a basic assay, two full cycles (sorption/desorption) were measured at 25° C. The measurement was started at 0% relative humidity in order to remove surface water. Once the constant mass was achieved, the next humidity was automatically set. The water sorption/desorption was investigated in steps of 10% between 0% and 90% relative humidity under the criteria for initiation of the first step as set forth herein. Additionally, the sorption at about 98% relative humidity was investigated. Data was acquired using the DVSWin software.

Row | relative humidity below which transformation into polymorph I is observed (desorption) | relative humidity above which polymorph I is transformed into the hydrate (25° C., water sorption) | moisture adsorbed (at 80% relative humidity, corresponds to a dihydrate) | hygroscopicity (in words) (sorption isotherm, FIG. 1) | reversibility of the hydration (sorption/desorption cycles) | SMILES
1 | Below 40 % relative humidity | – | – | – | – | O=C(O)COC[C@H](O)[C@H](O)/C=C/C=C/C#C/C=C/[C@H](O)COc1ccc(F)cc1 [hydrate, 2-((2S,3R,4E,6E,10E,12S)-13-(4-fluorophenoxy)-2,3,12-trihydroxytrideca-4,6,10-trien-8-ynyloxy)acetic acid]
2 | – | above 60 % relative humidity | approx. 8% | hygroscopic | reversible | O=C(O)COC[C@H](O)[C@H](O)/C=C/C=C/C#C/C=C/[C@H](O)COc1ccc(F)cc1 [polymorph I, 2-((2S,3R,4E,6E,10E,12S)-13-(4-fluorophenoxy)-2,3,12-trihydroxytrideca-4,6,10-trien-8-ynyloxy)acetic acid]
